Here are results for 45 molecules from US5521293A (Lever Brothers Company, Division of Conopco, Inc., priority 1995, dated 1996).

Holding throughout (format): physicochemical
Data set [1] in a line: Krafft point of aqueous dispersion of aldonamide. The following applies: for Krafft Point (0.1%): 0.1% in water by weight; for Krafft Point (1.0%): 1.0% in water by weight. The method, then: The temperature at and above which surfactants begin to form micelles instead of precipitates is referred to as the Krafft point (Tk) and at this temperature the solubility of a surfactant becomes equal to its CMC (numerical value at which micelles are formed).
The Krafft point was measured by preparing 650 ml of a 0.1% or 1.0% dispersion of aldonamide in water by weight. If the surfactant was soluble at room temperature, the solution was slowly cooled to 0° C. […] (less than zero). If it precipitated out of solution, the temperature at which precipitation occurs was taken as the Krafft point.
If the surfactant was insoluble at :room temperature, the dispersion was slowly heated until the solution became homogeneous. It was then slowly cooled until precipitation occurred. The temperature at which the surfactant precipitates out of solution upon cooling was taken as the Krafft point.

Data set [2] in a line: Ross-Miles foam height. Details: key: X: low water solubility. foam height cannot be measured. The following applies: Examples 82-83; for Foam Height Final (symbol): after 10 minutes. The method, then:
(§1) Since most of the foaming data on surfactants is typically obtained by the Ross-Miles Foam Height Assay (Ross, J. and Miles, G. D. Am Soc. for Testing Material Method D1173-63 Philadelphia, Pa. (1953); Oil & Soap (1958) 62:1260) the foaming ability of these surfactants were acquired using this method.
(§2) In the Ross-Miles method, 200 mL of a surfactant solution contained in a pipette of specified dimensions with a 2.9-mm-i.d. orifice is allowed to fall 90 cm onto 50 mL of the same solution contained in a cylindrical vessel maintained at a given temperature by means of a water jacket. The height of the foam produced in the cylindrical vessel is read immediately after all the solution has run out of the pipette and then again after a given amount of time.
(§3) Using this method, the foam production (initial foam height in mm) and foam stability (final foam height after 10 minutes in mm) were measured at 0.1% aldonamide concentration, 40° C. and 0 ppm (parts per million) hardness. Aldonamides that were not soluble at 40° C. were measured at about 5°-10° C. above their Krafft points.

Data set [3] in a line: Ross-Miles foam height. Conditions: 0.1% aldonamide, 40° C. (or about 5°-10° C. above Krafft point if not soluble), 0 ppm hardness; for Foam Height Final: after 10 minutes. The method, then:
as §1, §2, §3

For `CCCCCCCCCCCCOC(=O)C(C)NC(=O)[C@H](O)[C@@H](O)[C@H](O)[C@H](O)CO` (mixture of isomers) [Y, N-D-Gluconyl Dodecyl DL-Alaninate], in data set [1], the “Krafft Point (0.1%)” value was found to be 53 °C.

With `CCCCCCCCCCCCNC(=O)[C@H](O)[C@H](O)[C@H](O)CO` [A, dodecyl D-ribonamide], in data set [1], the “Krafft Point (0.1%)” value came out at 54 °C.

Consider `CCCCCCCCCCCCOC(=O)CNC(=O)[C@H](O)[C@@H](O)[C@H](O[C@@H]1O[C@H](CO)[C@H](O)[C@H](O)[C@H]1O)[C@H](O)CO` [AAA, N-D-lactobionyl dodecyl glycinate], for which, in data set [1], the “Krafft Point (1.0%)” value is less than 0 °C.

`CCCCCCCCCCCCOC(=O)CCNC(=O)[C@H](O)[C@@H](O)[C@H](O[C@@H]1O[C@H](CO)[C@H](O)[C@H](O)[C@H]1O)[C@H](O)CO` [BBB, N-D-lactobionyl dodecyl β-alaninate]: in data set [1], the “Krafft Point (1.0%)” value is less than 0 °C.

Regarding `CCCCCCCNC(=O)[C@H](O)[C@@H](O)[C@H](O)[C@H](O)CO` [C, C7 D-Gluconamide], the “Krafft Point (0.1%)” value in data set [1] was less than 0 °C.

`CCCCCCCC/C=C\CCCCCCCCNCCCNC(=O)[C@H](O)[C@@H](O)[C@H](O)[C@H](O)CO` [CC, oleylaminopropyl D-gluconamide]: the “Krafft Point (0.1%)” value in data set [1] is less than 0 °C.

Turning to `CCCCCCCCNC(=O)[C@H](O)[C@@H](O)[C@H](O)[C@H](O)CO` [D, C8 D-Gluconamide], the “Krafft Point (0.1%)” value in data set [1] came out at 12 °C.

With `CCCCCCCCCNC(=O)[C@H](O)[C@@H](O)[C@H](O)[C@H](O)CO` [E, C9 D-Gluconamide], the “Krafft Point (0.1%)” value in data set [1] was 53 °C.

Consider `CCCCCCCCCCCCOCCCNC(=O)[C@H](O)[C@@H](O)[C@H](O)[C@H](O)CO` [Entry S, C12 Oxypropyl D-Gluconamide], for which the “Krafft Point (0.1%)” value in data set [1] was determined as 61 °C.

Take `CCCCCCCCCCNC(=O)[C@H](O)[C@@H](O)[C@H](O)[C@H](O)CO` [F, C10 D-Gluconamide]: the “Krafft Point (0.1%)” value in data set [1] amounted to 75 °C.

Turning to `CCCCCCCCCCCCNC(=O)C(O)C(O)C(O)C(O)C(O)C(O)CO` [FF, C12 D-Glucooctonamide], the “Krafft Point (0.1%)” value in data set [1] was found to be 86 °C. In addition, in “Ross-Miles foam height [2]”, the “Foam Height Final (symbol)” value was “X” and the “Foam Height Initial (symbol)” value is recorded as “X”.

As to `CCCCCCCCCCCNC(=O)[C@H](O)[C@@H](O)[C@H](O)[C@H](O)CO` [G, C11 D-Gluconamide], in data set [1], the “Krafft Point (0.1%)” value amounted to 87 °C. For the same molecule, in the data set “Ross-Miles foam height [2]”, the “Foam Height Final (symbol)” value is recorded as “X” and the “Foam Height Initial (symbol)” value is recorded as “X”.

Turning to `CCCCCCCCCCCCNC(=O)[C@H](O)[C@H](O)[C@@H](O)[C@H](O)[C@H](O)CO` [HH, C12 D-Glucoheptonamide], the “Krafft Point (0.1%)” value in data set [1] worked out at 91 °C. Moreover, in the data set “Ross-Miles foam height [2]”, the “Foam Height Final (symbol)” value was “X” and the “Foam Height Initial (symbol)” value was “X”.

With `CCCCCCCCCCCCNC(=O)[C@@H](O)[C@H](O)[C@@H](O)[C@@H](O)CO` [I, C12 L-Gluconamide], in data set [1], the “Krafft Point (0.1%)” value is 91 °C. In the data set “Ross-Miles foam height [2]”, the “Foam Height Final (symbol)” value is reported as “X” and the “Foam Height Initial (symbol)” value was “X”.

For the molecule `CCCCCCCCCCCCOCCCNC(=O)[C@H](O)[C@H](O)[C@@H](O)[C@H](O)[C@H](O)CO` [KK, C12 Oxypropyl D-Glucoheptonamide], in data set [1], the “Krafft Point (0.1%)” value amounted to 73 °C.

`CCCCCCCCCNC(=O)[C@H](O)[C@@H](O)[C@H](O[C@@H]1O[C@H](CO)[C@H](O)[C@H](O)[C@H]1O)[C@H](O)CO` [MM, nonyl D-lactobionamide]: in data set [1], the “Krafft Point (1.0%)” value was 42 °C.

`CCCCCCCCCCCNC(=O)[C@H](O)[C@@H](O)[C@H](O[C@@H]1O[C@H](CO)[C@H](O)[C@H](O)[C@H]1O)[C@H](O)CO` [NN, C11 D-Lactobionamide]: the “Krafft Point (1.0%)” value in data set [1] amounted to 61 °C.

For the molecule `CCCCCCCCCCCCNC(=O)[C@H](O)[C@@H](O)[C@H](O[C@@H]1O[C@H](CO)[C@H](O)[C@H](O)[C@H]1O)[C@H](O)CO` [OO, C12 D-Lactobionamide], in data set [1], the “Krafft Point (1.0%)” value is 38 °C.

Consider `CCCCC(CC)COCCCNC(=O)[C@H](O)[C@@H](O)[C@H](O)[C@H](O)CO` (stereo partly drawn) [P, Ethylhexyloxypropyl D-Gluconamide], for which, in data set [1], the “Krafft Point (0.1%)” value was less than 0 °C.

As to `CCCCCCCCCCCCCNC(=O)[C@H](O)[C@@H](O)[C@H](O[C@@H]1O[C@H](CO)[C@H](O)[C@H](O)[C@H]1O)[C@H](O)CO` [PP, C13 D-Lactobionamide], the “Krafft Point (1.0%)” value in data set [1] was determined as 70 °C.

Regarding `CCCCCCCCCCCCCCNC(=O)[C@H](O)[C@@H](O)[C@H](O[C@@H]1O[C@H](CO)[C@H](O)[C@H](O)[C@H]1O)[C@H](O)CO` [QQ, C14 D-Lactobionamide], the “Krafft Point (1.0%)” value in data set [1] came to 18 °C.

For the molecule `CCCCCCCCCCCCCCNC(=O)[C@H](O)[C@@H](O)[C@H](O[C@H]1O[C@H](CO)[C@@H](O)[C@H](O)[C@H]1O)[C@H](O)CO` [RR, C14 D-Maltobionamide], the “Krafft Point (1.0%)” value in data set [1] was determined as 46 °C.

With `CCCCCCCCCCCCCCCCNC(=O)[C@H](O)[C@@H](O)[C@H](O[C@@H]1O[C@H](CO)[C@H](O)[C@H](O)[C@H]1O)[C@H](O)CO` [TT, C16 D-Lactobionamide], the “Krafft Point (1.0%)” value in data set [1] was found to be 64 °C.

For the molecule `CCCCCCCCCCCCCCOCCCNC(=O)[C@H](O)[C@@H](O)[C@H](O)[C@H](O)CO` [V, C14 Oxypropyl D-Gluconamide], the “Krafft Point (0.1%)” value in data set [1] is 53 °C.

With `CCCCCCCCCCCCOC(=O)CNC(=O)[C@H](O)[C@@H](O)[C@H](O)[C@H](O)CO` [W, N-D-gluconyl dodecyl glycinate], the “Krafft Point (0.1%)” value in data set [1] turned out to be 63 °C.

Consider `CCCCCCCCCCCCOCCCNC(=O)[C@H](O)[C@@H](O)[C@H](O[C@@H]1O[C@H](CO)[C@H](O)[C@H](O)[C@H]1O)[C@H](O)CO` [WW, dodecyloxypropyl D-lactobionamide], for which, in data set [1], the “Krafft Point (1.0%)” value is less than 0 °C.

Take `CCCCCCCCCCCC(=O)OCCNC(=O)[C@H](O)[C@@H](O)[C@H](O)[C@H](O)CO` [X, N-D-gluconyl dodecyl ester of ethanolamine]: the “Krafft Point (0.1%)” value in data set [1] came to 63 °C.

Regarding `CCCCCCCCCCCCOCCCNC(=O)[C@H](O)[C@@H](O)[C@H](O[C@H]1O[C@H](CO)[C@@H](O)[C@H](O)[C@H]1O)[C@H](O)CO` [XX, dodecyloxypropyl D-maltobionamide], the “Krafft Point (1.0%)” value in data set [1] is less than 0 °C.

Consider `CCCCCCCCCCCCOCCOCCOC(=O)CNC(=O)[C@H](O)[C@@H](O)[C@H](O)[C@H](O)CO` [Z, N-D-Gluconyl Dodecyldi(oxyethyl) Glycinate], for which, in data set [1], the “Krafft Point (0.1%)” value was less than 0 °C.

With `CCCCCCCCCCCCCCOCCCNC(=O)[C@H](O)[C@@H](O)[C@H](O[C@@H]1O[C@H](CO)[C@H](O)[C@H](O)[C@H]1O)[C@H](O)CO` [ZZ, tetradecyloxypropyl D-lactobionamide], the “Krafft Point (1.0%)” value in data set [1] was less than 0 °C.

As to “C8 /C10 Oxypropyl D-Glucoheptonamide [II]”, the “Krafft Point (0.1%)” value in data set [1] was determined as 60 °C. In addition, in the data set “Ross-Miles foam height [3]”, the “Foam Height Final” value is reported as 90 mm and the “Foam Height Initial” value is 221 mm.

As for “C12 -C15 Oxypropyl D-Glucoheptonamide [LL]”, in data set [1], the “Krafft Point (0.1%)” value is 68 °C. Further, in the data set “Ross-Miles foam height [3]”, the “Foam Height Final” value is recorded as 97 mm and the “Foam Height Initial” value came to 239 mm.

In the case of “Iso C10 Oxypropyl D-Glucoheptonamide [JJ]”, the “Krafft Point (0.1%)” value in data set [1] was 18 °C. In the data set “Ross-Miles foam height [3]”, the “Foam Height Final” value came to 204 mm and the “Foam Height Initial” value was determined as 215 mm.

Regarding Iso C10 Oxypropyl D-Gluconamide, the “Krafft Point (0.1%)” value in data set [1] was less than 0 °C. Also, in the data set “Ross-Miles foam height [3]”, the “Foam Height Final” value is given as 206 mm and the “Foam Height Initial” value stood at 213 mm.

As to Iso C13 Oxypropyl D-Gluconamide [T], the “Krafft Point (0.1%)” value in data set [1] is less than 15 °C.

“Iso C13 Oxypropylaminopropyl D-Gluconamide [DD]”: the “Krafft Point (0.1%)” value in data set [1] was less than 0 °C. Also, the “Foam Height Final” value in the data set “Ross-Miles foam height [3]” is 178 mm.

Turning to cocoaminopropyl D-gluconamide [AA], the “Krafft Point (0.1%)” value in data set [1] is 18 °C.

For the molecule cocoaminopropyl D-lactobionamide [CCC], in data set [1], the “Krafft Point (1.0%)” value is less than 0 °C.

For the molecule “dodecyl to pentadecyloxypropyl D-gluconamide”, the “Krafft Point (0.1%)” value in data set [1] worked out at 58 °C.

With “dodecyl to pentadecyloxypropyl D-lactobionamide [YY]”, in data set [1], the “Krafft Point (1.0%)” value is less than 0 °C.

Take “dodecyl to pentadecyloxypropylaminopropyl D-gluconamide [EE]”: in data set [1], the “Krafft Point (0.1%)” value is less than 0 °C.

“dodecyl to pentadecyloxypropylaminopropyl D-lactobionamide [EEE]”: the “Krafft Point (1.0%)” value in data set [1] was less than 0 °C.

On to “octyl/decyloxypropyl D-lactobionamide [VV]”, for which, in data set [1], the “Krafft Point (1.0%)” value is less than 0 °C.

Turning to octyl/decyloxypropyl D-ribonamide, in data set [1], the “Krafft Point (0.1%)” value was determined as 10 °C.

Regarding soyaaminopropyl D-gluconamide [BB], the “Krafft Point (0.1%)” value in data set [1] is less than 18 °C.
